Where only a bound is given, the exact number is not on record here.

In the experiment the target is T1, CD73 (Homo sapiens, UniProt P21589).
T1 sequence (P21589 27-549): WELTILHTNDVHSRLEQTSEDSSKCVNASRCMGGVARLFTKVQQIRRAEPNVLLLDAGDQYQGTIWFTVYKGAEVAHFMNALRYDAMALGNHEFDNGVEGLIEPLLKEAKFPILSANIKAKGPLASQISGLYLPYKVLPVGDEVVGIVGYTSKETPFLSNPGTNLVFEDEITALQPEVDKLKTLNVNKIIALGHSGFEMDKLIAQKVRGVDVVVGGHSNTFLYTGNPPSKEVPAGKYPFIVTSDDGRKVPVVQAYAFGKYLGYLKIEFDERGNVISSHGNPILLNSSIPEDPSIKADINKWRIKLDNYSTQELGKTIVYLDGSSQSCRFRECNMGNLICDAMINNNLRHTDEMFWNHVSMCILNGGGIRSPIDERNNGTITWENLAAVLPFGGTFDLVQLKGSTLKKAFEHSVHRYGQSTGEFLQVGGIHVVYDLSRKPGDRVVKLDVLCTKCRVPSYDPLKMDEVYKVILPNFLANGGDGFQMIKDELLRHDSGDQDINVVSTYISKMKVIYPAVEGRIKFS
As to the kind of experiment: CD73 biochemical assay, Malachite Green detection of AMP hydrolysis. Conditions: CD73 320 pM, AMP 15 μM, Malachite Green readout. The method, then: Assay Reaction Conditions
• Assay Volume: 70 μl • Reaction Volume: 50 μl • CD73: 0.3208 nM • AMP: 15 μM • Assay Buffer: 2 5 mM Tris-HCL, pH 7.4, 0.01% Brij-35, 0.01% BSA, 5 mM MgCl2 Assay Procedure:
A clear 384 well plate was used in this assay.
Made dose titration of testing compounds in assay buffer, 10 points ½ log titrations in duplicates starting at 100 μM. Total volume for each well was 25 μl, with CD73 then added to each well for a final concentration of 320 pM. The solution was then incubated at RT for 15 min. 25 μl of AMP was added to each well for a final concentration of 15 μM, and then incubated at rt for 10 min. 10 μl of Malachite Green Reagent A was then added and allowed to incubate at rt for 10 min. 10 μl of Malachite Green Reagent B was then added and allowed to incubate at rt for 45 min. The absorbance for each sample was read on an Envision plate reader using excitation filter: Cy5 […].
The ability of the compounds disclosed herein to inhibit CD73 activity was quantified and the respective IC50 values were determined. Table 2 provides the biochemical IC50 values of compounds disclosed herein.
`COCC(COC)(OC[C@H]1O[C@@H](c2ccc3c(NC4CCCC4)nc(Cl)nn23)[C@H](O)[C@@H]1O)P(=O)(O)O` [Example 30, (2-(((2R,3S,4R,5S)-5-(2-chloro-4-(cyclopentylamino)pyrrolo[2,1-f][1,2,4]triazin-7-yl)-3,4-dihydroxytetrahydrofuran-2-yl)methoxy)-1,3-dimethoxypropan-2-yl)phosphonic acid]: the half-maximal inhibitory concentration (IC50) – broadly, the concentration needed to halve the response being measured – is at most 0.5 nM.
`COC[C@@](C)(OC[C@H]1O[C@@H](c2ccc3c(NC4CCCC4)nc(Cl)nn23)[C@H](O)[C@@H]1O)P(=O)(O)O` [Example 31, ((S)-2-(((2R,3S,4R,5S)-5-(2-chloro-4-(cyclopentylamino)pyrrolo[2,1-f][1,2,4]triazin-7-yl)-3,4-dihydroxytetrahydrofuran-2-yl)methoxy)-1-methoxypropan-2-yl)phosphonic acid] gave an IC50 of 1 to 100 nM.
In the case of `COC[C@](C)(OC[C@H]1O[C@@H](c2ccc3c(NC4CCCC4)nc(Cl)nn23)[C@H](O)[C@@H]1O)P(=O)(O)O` [Example 32, ((R)-2-(((2R,3S,4R,5S)-5-(2-chloro-4-(cyclopentylamino)pyrrolo[2,1-f][1,2,4]triazin-7-yl)-3,4-dihydroxytetrahydrofuran-2-yl)methoxy)-1-methoxypropan-2-yl)phosphonic acid] it was at most 0.5 nM; in that of `C[C@](CO)(OC[C@H]1O[C@@H](c2ccc3c(NC4CCCC4)nc(Cl)nn23)[C@H](O)[C@@H]1O)P(=O)(O)O` [Example 33, ((S)-2-(((2R,3S,4R,5S)-5-(2-chloro-4-(cyclopentylamino)pyrrolo[2,1-f][1,2,4]triazin-7-yl)-3,4-dihydroxytetrahydrofuran-2-yl)methoxy)-1-hydroxypropan-2-yl)phosphonic acid], 1 to 100 nM; in that of `C[C@@](CO)(OC[C@H]1O[C@@H](c2ccc3c(NC4CCCC4)nc(Cl)nn23)[C@H](O)[C@@H]1O)P(=O)(O)O` [Example 34, ((R)-2-(((2R,3S,4R,5S)-5-(2-chloro-4-(cyclopentylamino)pyrrolo[2,1-f][1,2,4]triazin-7-yl)-3,4-dihydroxytetrahydrofuran-2-yl)methoxy)-1-hydroxypropan-2-yl)phosphonic acid], 0.5 to 1 nM.
In the case of `O=P(O)(O)[C@](COCc1nn[nH]n1)(COCC1CC1)OC[C@H]1O[C@@H](c2ccc3c(NC4CCCC4)nc(Cl)nn23)[C@H](O)[C@@H]1O` [Example 35, ((S)-1-((2H-tetrazol-5-yl)methoxy)-2-(((2R,3S,4R,5S)-5-(2-chloro-4-(cyclopentylamino)pyrrolo[2,1-f][1,2,4]triazin-7-yl)-3,4-dihydroxytetrahydrofuran-2-yl)methoxy)-3-(cyclopropylmethoxy)propan-2-yl)phosphonic acid] it was at most 0.5 nM; in that of `C[C@@]1(c2ccc3c(NC4CCCC4)nc(Cl)nn23)O[C@H](CO[C@@](CO)(COCc2nn[nH]n2)P(=O)(O)O)[C@@H](O)[C@H]1O` [Example 36, ((R)-1-((2H-tetrazol-5-yl)methoxy)-2-(((2R,3S,4R,5S)-5-(2-chloro-4-(cyclopentylamino)pyrrolo[2,1-f][1,2,4]triazin-7-yl)-3,4-dihydroxy-5-methyltetrahydrofuran-2-yl)methoxy)-3-hydroxypropan-2-yl)phosphonic acid], 100 to 1000 nM.
The same measure for `C[C@@]1(c2ccc3c(NC4CCCC4)nc(Cl)nn23)O[C@H](CO[C@](CO)(COCc2nn[nH]n2)P(=O)(O)O)[C@@H](O)[C@H]1O` [Example 37, ((S)-1-((2H-tetrazol-5-yl)methoxy)-2-(((2R,3S,4R,5S)-5-(2-chloro-4-(cyclopentylamino)pyrrolo[2,1-f][1,2,4]triazin-7-yl)-3,4-dihydroxy-5-methyltetrahydrofuran-2-yl)methoxy)-3-hydroxypropan-2-yl)phosphonic acid]: 100 to 1000 nM; for `O=P(O)(O)C(CO)(COCc1nnn[nH]1)OC[C@H]1O[C@@H](c2cnn3c(NC4CCCC4)cc(Cl)nc23)[C@H](O)[C@@H]1O` (stereo partly drawn) [Example 38]: at most 0.5 nM.
`O=P(O)(O)C(CO)(COCc1nnn[nH]1)OC[C@H]1O[C@@H](c2ccc3c(NCC4CCC4)nc(Cl)nn23)[C@H](O)[C@@H]1O` (stereo partly drawn) [Example 39, (1-((1H-tetrazol-5-yl)methoxy)-2-(((2R,3S,4R,5S)-5-(2-chloro-4-((cyclobutylmethyl)amino)pyrrolo[2,1-f][1,2,4]triazin-7-yl)-3,4-dihydroxytetrahydrofuran-2-yl)methoxy)-3-hydroxypropan-2-yl)phosphonic acid] returned an IC50 of at most 0.5 nM.
In the case of `O=P(O)(O)[C@](CO)(COCc1nn[nH]n1)OC[C@H]1O[C@@H](c2ccc3c(N[C@@H]4CCc5ccccc54)nc(Cl)nn23)[C@H](O)[C@@H]1O` [Example 40, ((R)-1-((2H-tetrazol-5-yl)methoxy)-2-(((2R,3S,4R,5S)-5-(2-chloro-4-(((R)-2,3-dihydro-1H-inden-l-yl)amino)pyrrolo[2,1-f][1,2,4]triazin-7-yl)-3,4-dihydroxytetrahydrofuran-2-yl)methoxy)-3-hydroxypropan-2-yl)phosphonic acid] it was at most 0.5 nM; in that of `O=P(O)(O)[C@@](CO)(COCc1nn[nH]n1)OC[C@H]1O[C@@H](c2ccc3c(N[C@@H]4CCc5ccccc54)nc(Cl)nn23)[C@H](O)[C@@H]1O` [Example 41, ((S)-1-((2H-tetrazol-5-yl)methoxy)-2-(((2R,3S,4R,5S)-5-(2-chloro-4-(((R)-2,3-dihydro-1H-inden-l-yl)amino)pyrrolo[2,1-f][1,2,4]triazin-7-yl)-3,4-dihydroxytetrahydrofuran-2-yl)methoxy)-3-hydroxypropan-2-yl)phosphonic acid], at most 0.5 nM; in that of `COC[C@@](OC[C@H]1O[C@@H](c2ccc3c(NC4CCCC4)nc(Cl)nn23)[C@H](O)[C@@H]1O)(C(=O)O)P(=O)(O)O` [Example 42, (S)-2-(((2R,3 S,4R,5S)-5-(2-chloro-4-(cyclopentylamino)pyrrolo[2,1-f][1,2,4]triazin-7-yl)-3,4-dihydroxytetrahydrofuran-2-yl)methoxy)-3-methoxy-2-phosphonopropanoic acid], at most 0.5 nM.
Take `O=P(O)(O)C(CO)(COCc1nnn[nH]1)OC[C@H]1O[C@H](c2cnn3c(NC4CCCC4)cc(Cl)nc23)[C@H](O)[C@@H]1O` (stereo partly drawn) [Example 43, (1-((1H-tetrazol-5-yl)methoxy)-2-(((2R,3S,4R,5R)-5-(5-chloro-7-(cyclopentylamino)pyrazolo[1,5-a]pyrimidin-3-yl)-3,4-dihydroxytetrahydrofuran-2-yl)methoxy)-3-hydroxypropan-2-yl)phosphonic acid]: the IC50 was in the range of 1 to 100 nM.
The same measure for `O=c1[nH]c(COC[C@@](CO)(OC[C@H]2O[C@@H](c3ccc4c(NCC5CC5)nc(Cl)nn34)[C@H](O)[C@@H]2O)P(=O)(O)O)no1` [Example 44, ((S)-2-(((2R,3S,4R,5S)-5-(2-chloro-4-((cyclopropylmethyl)amino)pyrrolo[2,1-f][1,2,4]triazin-7-yl)-3,4-dihydroxytetrahydrofuran-2-yl)methoxy)-1-hydroxy-3-((5-oxo-4,5-dihydro-1,2,4-oxadiazol-3-yl)methoxy)propan-2-yl)phosphonic acid]: at most 0.5 nM; for `COC[C@](CC(=O)O)(OC[C@H]1O[C@@H](c2ccc3c(NC4CCCC4)nc(Cl)nn23)[C@H](O)[C@@H]1O)P(=O)(O)O` [Example 45, (R)-3-(((2R,3S,4R,5S)-5-(2-Chloro-4-(Cyclopentylamino)pyrrolo[2,1-f][1,2,4]triazin-7-yl)-3,4-dihydroxytetrahydrofuran-2-yl)methoxy)-4-methoxy-3-phosphonobutanoic acid]: at most 0.5 nM; for `O=P(O)(O)[C@@](CO)(COCc1nn[nH]n1)OC[C@H]1O[C@@H](c2ccc3c(NCC4CCCC4)nc(Cl)nn23)[C@H](O)[C@@H]1O` [Example 46, ((S)-1-((2H-tetrazol-5-yl)methoxy)-2-(((2R,3S,4R,5S)-5-(2-chloro-4-((cyclopentylmethyl)amino)pyrrolo[2,1-f][1,2,4]triazin-7-yl)-3,4-dihydroxytetrahydrofuran-2-yl)methoxy)-3-hydroxypropan-2-yl)phosphonic acid]: at most 0.5 nM.
In the case of `COC[C@](OC[C@H]1O[C@@H](c2ccc3c(NC4CCCC4)nc(Cl)nn23)[C@H](O)[C@@H]1O)(C(=O)O)P(=O)(O)O` [Example 47, (R)-2-(((2R,3S,4R,5S)-5-(2-chloro-4-(cyclopentylamino)pyrrolo[2,1-f][1,2,4]triazin-7-yl)-3,4-dihydroxytetrahydrofuran-2-yl)methoxy)-3-methoxy-2-phosphonopropanoic acid] it was 1 to 100 nM.

Source of the values: patent US12544391B2, “CD73 inhibitors” (ORIC Pharmaceuticals, Inc., priority 2019, dated 2026).
